Here are results for nine compounds from patent US9406887B2, “Solution, organic semiconductor material, organic semiconductor film, electronic device and electronic equipment” (RICOH COMPANY, LTD., priority 2013, dated 2016).

A short description of series [1]: Weight variation (TG) on heating, thermal analyzer EXSTRA6200. The series is classed as physicochemical. The note with it: heated to 250° C. at 20° C./min, nitrogen atmosphere. As to the method:
After 50 mg (0.10 mmol) of the compound having the formula (1-1) were placed in an aluminum pan, they were heated to have a temperature of 250° C. at 20° C./min and weight variation (TG) thereof was measured using a thermal analyzer EXSTRA6200 from Seiko Instruments, Inc. in a nitrogen atmosphere. Thus, 29 mg (yield rate quant.) of a dark purple solid compound having the formula (2-1) was obtained.

A short description of series [2]: Solubility of the compound in an organic solvent (saturated solution at 25° C. after reflux). The note with it: cooled to 25° C. after reflux; for solubility in CHCl3: chloroform. In kind it is physicochemical. The procedure: After the compound was added to […] of an organic solvent such as toluene, THF and chloroform until insoluble residue remained, the mixture was stirred for 10 min while the organic solvent was refluxed with heat. Next, after the mixture was cooled to have a temperature of 25° C., it was stirred for 1 hr. Further, after quietly put for 16 hrs, the top clear layer of the mixture was filtered through a PTFE filter having a hole diameter of 0.2 μm to prepare a saturated solution. Next, the solution was dried under reduced pressure and the solubility of the compound in an organic solvent was measured. The evaluation standard of the solubility of the compound in an organic solvent is as follows.

In the case of `CCCCCCc1csc(-c2ccc(C3=C4C(=O)N(C(=O)OC(C)(C)C)C(c5ccc(-c6cc(CCCCCC)cs6)s5)=C4C(=O)N3C(=O)OC(C)(C)C)s2)c1` [formula (1-17)], the “weight reduction (TG)” value in series [1] turned out to be 23.1%. Also, in series [2], the “solubility in THF” value was “Excellent (not less than 0.5% by weight)”, the “solubility in CHCl3” value was “Excellent (not less than 0.5% by weight)” and the “solubility in Toluene” value is recorded as “Excellent (not less than 0.5% by weight)”.

In the case of `CCCCCCCCCCCCOc1cc(-c2ccc(-c3ccc(C4=C5C(=O)N(C(=O)OC(C)(C)C)C(c6ccc(-c7ccc(-c8cc(OCCCCCCCCCCCC)c(OCCCCCCCCCCCC)c(OCCCCCCCCCCCC)c8)s7)s6)=C5C(=O)N4C(=O)OC(C)(C)C)s3)s2)cc(OCCCCCCCCCCCC)c1OCCCCCCCCCCCC` [formula (1-25)], in series [1], the “weight reduction (TG)” value came to 10.3%. In addition, in series [2], the “solubility in THF” value was “Excellent (not less than 0.5% by weight)”, the “solubility in CHCl3” value is reported as “Excellent (not less than 0.5% by weight)” and the “solubility in Toluene” value is reported as “Excellent (not less than 0.5% by weight)”.

`CC(C)(C)OC(=O)N1C(=O)C2=C(c3cccs3)N(C(=O)OC(C)(C)C)C(=O)C2=C1c1cccs1` [formula (1-1)]: in series [1], the “weight reduction (TG)” value was 34.6%. In series [2], the “solubility in THF” value is listed as “Excellent (not less than 0.5% by weight)”, the “solubility in CHCl3” value is on record as “Excellent (not less than 0.5% by weight)” and the “solubility in Toluene” value is reported as “Excellent (not less than 0.5% by weight)”.

For the compound `CCCCCCCCCCCCOc1cc(-c2ccc(-c3ccc(-c4ccc(C5=C6C(=O)N(C(=O)OC(C)(C)C)C(c7ccc(-c8ccc(-c9ccc(-c%10cc(OCCCCCCCCCCCC)c(OCCCCCCCCCCCC)c(OCCCCCCCCCCCC)c%10)s9)s8)s7)=C6C(=O)N5C(=O)OC(C)(C)C)s4)s3)s2)cc(OCCCCCCCCCCCC)c1OCCCCCCCCCCCC` [formula (1-27)], in series [1], the “weight reduction (TG)” value amounted to 9.4%. In series [2], the “solubility in THF” value was “Good (not less than 0.1% and less than 0.5% by weight)”; the “solubility in CHCl3” value is “Excellent (not less than 0.5% by weight)”; the “solubility in Toluene” value is “Good (not less than 0.1% and less than 0.5% by weight)”.

As to `O=C1NC(c2cccs2)=C2C(=O)NC(c3cccs3)=C12` [formula (2-1)], in series [2], the “solubility in THF” value is “Poor (less than 0.005% by weight)”, the “solubility in CHCl3” value is given as “Poor (less than 0.005% by weight)” and the “solubility in Toluene” value is given as “Poor (less than 0.005% by weight)”.

Regarding `CC(C)(C)OC(=O)N1C(=O)C2=C(c3ccc(Br)s3)N(C(=O)OC(C)(C)C)C(=O)C2=C1c1ccc(Br)s1` [formula (1-4)], in series [1], the “weight reduction (TG)” value turned out to be 31.6%. In series [2], the “solubility in THF” value is “Excellent (not less than 0.5% by weight)”; the “solubility in CHCl3” value is given as “Excellent (not less than 0.5% by weight)”; the “solubility in Toluene” value was “Good (not less than 0.1% and less than 0.5% by weight)”.

With `CCCCCCOc1ccc(-c2ccc(C3=C4C(=O)N(C(=O)OC(C)(C)C)C(c5ccc(-c6ccc(OCCCCCC)cc6)s5)=C4C(=O)N3C(=O)OC(C)(C)C)s2)cc1` [formula (1-18)], in series [1], the “weight reduction (TG)” value was 23.1%. In series [2], the “solubility in THF” value was “Excellent (not less than 0.5% by weight)”, the “solubility in CHCl3” value is on record as “Excellent (not less than 0.5% by weight)” and the “solubility in Toluene” value was “Excellent (not less than 0.5% by weight)”.

`CCCCCCc1ccc(-c2ccc(C3=C4C(=O)N(C(=O)OC(C)(C)C)C(c5ccc(-c6ccc(CCCCCC)s6)s5)=C4C(=O)N3C(=O)OC(C)(C)C)s2)s1` [formula (1-12)]: the “weight reduction (TG)” value in series [1] stood at 23.8%. Moreover, in series [2], the “solubility in THF” value was “Good (not less than 0.1% and less than 0.5% by weight)”; the “solubility in CHCl3” value is listed as “Excellent (not less than 0.5% by weight)”; the “solubility in Toluene” value was “Excellent (not less than 0.5% by weight)”.

For `CCCCCCc1ccc(-c2ccc(-c3ccc(C4=C5C(=O)N(C(=O)OC(C)(C)C)C(c6ccc(-c7ccc(-c8ccc(CCCCCC)s8)s7)s6)=C5C(=O)N4C(=O)OC(C)(C)C)s3)s2)s1` [formula (1-16)], the “weight reduction (TG)” value in series [1] worked out at 19.8%. In addition, in series [2], the “solubility in THF” value is “Excellent (not less than 0.5% by weight)”, the “solubility in CHCl3” value was “Excellent (not less than 0.5% by weight)” and the “solubility in Toluene” value is given as “Excellent (not less than 0.5% by weight)”.
